Measured values: ChEMBL document CHEMBL1201862, “PubChem BioAssay data set” (2004)
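Grown in 96-well plates, cells were treated for 48 hours with each compound at five concentrations. Insufficient inhibition: endpoint recorded as highest concentration tested. GI50 marks 50% less growth.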 Calls of active or inactive are those of the source. Rule as the data show it: active = GI50 up to about 1.1 µM and inactive = higher. Where a SMILES comes first, the peptide text is derived from it. [ ]: non-standard residue; d: D form. The star is where a group is joined. ξ: configuration not given here. NMeF = CN[C@@H](Cc1ccccc1)C(=O)O; NMeV = CN[C@H](C(=O)O)C(C)C; ξNMeN = CNC(CC(N)=O)C(=O)O; NMeA = CN[C@@H](C)C(=O)O; ξNMeV = CNC(C(=O)O)C(C)C; Boc = CC(C)(C)OC(=O)*

Key:
Experiment in all cases: NCI anticancer screen, dose series, 48 h
[1] = test system: 786-0
[2] = test system: A498
[3] = test system: A549
[4] = test system: ACHN
[5] = test system: BT-549
[6] = test system: CAKI-1
[7] = test system: CCRF-CEM
[8] = test system: COLO 205
[9] = test system: DLD-1
[10] = test system: DMS-114
[11] = test system: DMS-273
[12] = test system: DU-145
[13] = test system: EKVX
[14] = test system: HCC 2998
[15] = test system: HCT-116
[16] = test system: HCT-15
[17] = test system: HL-60
[18] = test system: HOP-62
[19] = test system: HOP-92
[20] = test system: HT-29
[21] = test system: IGROV-1
[22] = test system: K562
[23] = test system: KM-20L2
[24] = test system: KM12
[25] = test system: LOX IMVI
[26] = test system: LXFL 529
[27] = test system: M14
[28] = test system: M19-MEL
[29] = test system: MCF7
[30] = test system: MDA-MB-231
[31] = test system: MDA-MB-435
[32] = test system: MDA-N
[33] = test system: MOLT-4
[34] = test system: Malme-3M
[35] = test system: NCI-H226
[36] = test system: NCI-H23
[37] = test system: NCI-H460
[38] = test system: NCI-H522
[39] = test system: NCI/ADR-RES
[40] = test system: OVCAR-3
[41] = test system: OVCAR-4
[42] = test system: OVCAR-5
[43] = test system: OVCAR-8
[44] = test system: PC-3
[45] = test system: RPMI-8226
[46] = test system: RXF 393
[47] = test system: SF-268
[48] = test system: SF-295
[49] = test system: SF-539
[50] = test system: SK-MEL-28
[51] = test system: SK-MEL-2
[52] = test system: SK-MEL-5
[53] = test system: SK-OV-3
[54] = test system: SN12C
[55] = test system: SNB-19
[56] = test system: SNB-75
[57] = test system: SNB-78
[58] = test system: SR
[59] = test system: SW-620
[60] = test system: T47D
[61] = test system: TK-10
[62] = test system: U-251
[63] = test system: UACC-257
[64] = test system: UACC-62
[65] = test system: UO-31
[66] = test system: XF498

## COC(=O)[C@H](C)N(C)C(=O)C(CC(N)=O)N(C)C(=O)[C@H](Cc1ccccc1)N(C)C(=O)[C@@H]1CCCN1C(=O)[C@H](C(C)C)N(C)C(=O)C(C(C)C)N(C)C(=O)[C@@H](NC(=O)OC(C)(C)C)C(C)C (stereo partly specified) (Boc-V[ξNMeV][NMeV]P[NMeF][ξNMeN][NMeA]-OMe)
[1]
  GI50: > 50 µM (inactive)
[2]
  GI50: > 50 µM (inactive)
[3]
  GI50: > 50 µM (inactive)
[4]
  GI50: > 50 µM (inactive)
[5]
  GI50: > 50 µM (inactive)
[6]
  GI50: > 50 µM (inactive)
[7]
  GI50: 13.6 µM (inactive)
[8]
  GI50: > 50 µM (inactive)
[9]
  GI50: 43.7 µM (inactive)
[10]
  GI50: 16.8 µM (inactive)
[11]
  GI50: 55.5 µM (inactive)
[12]
  GI50: > 50 µM (inactive)
[13]
  GI50: > 50 µM (inactive)
[14]
  GI50: > 50 µM (inactive)
[15]
  GI50: > 50 µM (inactive)
[16]
  GI50: > 75 µM
[17]
  GI50: 12.1 µM (inactive)
[18]
  GI50: > 50 µM (inactive)
[19]
  GI50: 29 µM (inactive)
[20]
  GI50: > 50 µM (inactive)
[21]
  GI50: > 50 µM (inactive)
[22]
  GI50: > 50 µM (inactive)
[23]
  GI50: 39.2 µM (inactive)
[24]
  GI50: 16.4 µM (inactive)
[25]
  GI50: > 50 µM (inactive)
[26]
  GI50: 24.2 µM (inactive)
[27]
  GI50: > 50 µM (inactive)
[28]
  GI50: 18.4 µM (inactive)
[29]
  GI50: > 50 µM (inactive)
[30]
  GI50: > 50 µM (inactive)
[31]
  GI50: > 50 µM (inactive)
[32]
  GI50: > 50 µM (inactive)
[33]
  GI50: 24.5 µM (inactive)
[34]
  GI50: > 75 µM (inactive)
[35]
  GI50: > 50 µM (inactive)
[36]
  GI50: > 50 µM (inactive)
[37]
  GI50: > 50 µM (inactive)
[38]
  GI50: > 50 µM (inactive)
[39]
  GI50: > 50 µM (inactive)
[40]
  GI50: > 50 µM (inactive)
[41]
  GI50: 38.5 µM (inactive)
[42]
  GI50: > 50 µM (inactive)
[43]
  GI50: 48.6 µM (inactive)
[44]
  GI50: > 50 µM (inactive)
[45]
  GI50: > 5 µM (inactive)
[46]
  GI50: 37.6 µM (inactive)
[47]
  GI50: 41.7 µM (inactive)
[48]
  GI50: > 50 µM (inactive)
[49]
  GI50: > 50 µM (inactive)
[50]
  GI50: > 50 µM (inactive)
[51]
  GI50: > 50 µM (inactive)
[52]
  GI50: > 50 µM (inactive)
[53]
  GI50: > 50 µM (inactive)
[54]
  GI50: > 50 µM (inactive)
[55]
  GI50: > 50 µM (inactive)
[56]
  GI50: 44 µM (inactive)
[57]
  GI50: 50.6 µM (inactive)
[58]
  GI50: 21.3 µM (inactive)
[59]
  GI50: > 50 µM (inactive)
[60]
  GI50: > 50 µM (inactive)
[61]
  GI50: > 50 µM (inactive)
[62]
  GI50: > 50 µM (inactive)
[63]
  GI50: > 50 µM (inactive)
[64]
  GI50: > 50 µM (inactive)
[65]
  GI50: > 50 µM (inactive)
[66]
  GI50: 26.7 µM (inactive)
